Source: patent publication US9125913B2, “Bcl-2-selective apoptosis-inducing agents for the treatment of cancer and immune diseases” (AbbVie Inc., priority 2008, dated 2015)

tested on: GST-Bcl-2; test: TR-FRET binding assay, Bcl-2; conditions: TR-FRET Ki values
Method in brief: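 Compounds serially diluted in DMSO from 50 μM (2× starting concentration, 10% DMSO), mixed with GST-tagged protein, F-Bak peptide probe and Tb-labeled antibody, incubated 3 h at room temperature.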

Row | SMILES | Binding selectivity ratio (Bcl-XL Ki/Bcl-2 Ki)
1 | CC1(C)CCC(CN2CCN(c3ccc(C(=O)NS(=O)(=O)c4ccc(NCC5CCOCC5)c(C#N)c4)c(Oc4ccc5[nH]ccc5c4)c3)CC2)=C(c2ccc(Cl)cc2)C1 [EXAMPLE 367, 4-(4-{[2-(4-chlorophenyl)-4,4-dimethylcyclohex-1-en-1-yl]methyl}piperazin-1-yl)-N-({3-cyano-4-[(tetrahydro-2H-pyran-4-ylmethyl)amino]phenyl}sulfonyl)-2-(1H-indol-5-yloxy)benzamide] | >143.2
2 | CC(C)C[C@@H](CO)Nc1ccc(S(=O)(=O)NC(=O)c2ccc(N3CCN(CC4=C(c5ccc(Cl)cc5)CC(C)(C)CC4)CC3)cc2Oc2ccc3[nH]ccc3c2)cc1[N+](=O)[O-] [EXAMPLE 369, 4-(4-{[2-(4-chlorophenyl)-4,4-dimethylcyclohex-1-en-1-yl]methyl}piperazin-1-yl)-N-[(4-{[(1S)-1-(hydroxymethyl)-3-methylbutyl]amino}-3-nitrophenyl)sulfonyl]-2-(1H-indol-5-yloxy)benzamide] | >0.8
3 | CC1(C)CCC(CN2CCN(c3ccc(C(=O)NS(=O)(=O)c4ccc(NC[C@H]5CCCO5)c([N+](=O)[O-])c4)c(Oc4ccc5[nH]ccc5c4)c3)CC2)=C(c2ccc(Cl)cc2)C1 [EXAMPLE 370, 4-(4-{[2-(4-chlorophenyl)-4,4-dimethylcyclohex-1-en-1-yl]methyl}piperazin-1-yl)-2-(1H-indol-5-yloxy)-N-[(3-nitro-4-{[(2R)-tetrahydrofuran-2-ylmethyl]amino}phenyl)sulfonyl]benzamide] | >729.9
4 | CC(C)[C@H](CO)Nc1ccc(S(=O)(=O)NC(=O)c2ccc(N3CCN(CC4=C(c5ccc(Cl)cc5)CC(C)(C)CC4)CC3)cc2Oc2ccc3[nH]ccc3c2)cc1[N+](=O)[O-] [EXAMPLE 371, 4-(4-{[2-(4-chlorophenyl)-4,4-dimethylcyclohex-1-en-1-yl]methyl}piperazin-1-yl)-N-[(4-{[(1R)-1-(hydroxymethyl)-2-methylpropyl]amino}-3-nitrophenyl)sulfonyl]-2-(1H-indol-5-yloxy)benzamide] | >78.8
5 | CC1(C)CCC(CN2CCN(c3ccc(C(=O)NS(=O)(=O)c4ccc(NCCCN5CCCC5=O)c([N+](=O)[O-])c4)c(Oc4ccc5[nH]ccc5c4)c3)CC2)=C(c2ccc(Cl)cc2)C1 [EXAMPLE 374, 4-(4-{[2-(4-chlorophenyl)-4,4-dimethylcyclohex-1-en-1-yl]methyl}piperazin-1-yl)-2-(1H-indol-5-yloxy)-N-[(3-nitro-4-{[3-(2-oxopyrrolidin-1-yl)propyl]amino}phenyl)sulfonyl]benzamide] | >291.2
6 | CC1(C)CCC(CN2CCN(c3ccc(C(=O)NS(=O)(=O)c4ccc(Nc5ccc(O)cc5)c([N+](=O)[O-])c4)c(Oc4ccc5[nH]ccc5c4)c3)CC2)=C(c2ccc(Cl)cc2)C1 [EXAMPLE 375, 4-(4-{[2-(4-chlorophenyl)-4,4-dimethylcyclohex-1-en-1-yl]methyl}piperazin-1-yl)-N-({4-[(4-hydroxyphenyl)amino]-3-nitrophenyl}sulfonyl)-2-(1H-indol-5-yloxy)benzamide] | >58.6
7 | CC1(C)CCC(CN2CCN(c3ccc(C(=O)NS(=O)(=O)c4ccc(NCCc5ccc(S(N)(=O)=O)cc5)c([N+](=O)[O-])c4)c(Oc4ccc5[nH]ccc5c4)c3)CC2)=C(c2ccc(Cl)cc2)C1 [EXAMPLE 376, N-{[4-({2-[4-(aminosulfonyl)phenyl]ethyl}amino)-3-nitrophenyl]sulfonyl}-4-(4-{[2-(4-chlorophenyl)-4,4-dimethylcyclohex-1-en-1-yl]methyl}piperazin-1-yl)-2-(1H-indol-5-yloxy)benzamide] | >29.5
